# Values joined by “and” are separate entries in the source; they are usually repeats but may differ in a detail not shown here. Equal values may be shown once.
# Key:
# [1] = test system: dogs with intracoronary microembolization-induced chronic HF; test: 3 months therapy with beta-blocker alone, beta-blocker combined with CCM, or no therapy in HF dogs: LV EDV, ESV, EF; format: in vivo, dog
# Method: In a set of experiments, dogs with intracoronary microembolization-induced chronic HF (LV EF 30%-40%) were randomized to 3 months therapy with either BB (beta-blockers) alone (extended release metoprolol succinate, 100 mg once daily), extended release metoprolol succinate (100 mg, once daily) combined with CCM therapy, or to no therapy at all (Control). LV end-diastolic volume (EDV), end-systolic volume (ESV) and EF were measured before randomization (PRE) and after 3 months of therapy (POST). To determine “treatment effect”, the change A between PRE and POST therapy for each group was compared among the 3 study groups.
# normal cells = conditions: advertised; cited from earlier work
# phospholamban serine-16 = test: Phosphorylation of PLB at serine-16 in failing LV tissue homogenate with/without protein kinase inhibitor and CCM signal (Western blot); format: biochemical, dog
# Method: (§1) The tissue homogenate was prepared in the following manner. […] The homogenate was then filtered through 4 layers of cheese cloth. The resulting homogenate was stored in ice and its protein concentration was determined by the Lowry method.
# (§2) The CCM signals were delivered to the homogenate as follows. The homogenate was diluted 2 fold in homogenate buffer and subsequently aliquotted 3 ml each in assay tubes. Assay tubes were divided into 2 sets (Set A and Set B), each subset consisting of […]. CCM signals were delivered for 10″, 30″, 1′, 5′, 30′, and 60′ in one of the sets, while the other set served as time control. The reaction was stopped by adding concentrated SDS. Protein assay on all the samples were performed by Lowry method.
# (§3) Additional experiments of tissue homogenate were carried out in the presence and absence of protein kinese inhibitors. The homogenate was the same as above, from dogs with heart failure. […] CAS 62996-74-1.
# protein kinase G = conditions: advertised; read-out: Inhibits protein kinase G IC50; cited from earlier work
# platelet aggregation = conditions: advertised; cited from earlier work
# [2] = test system: human malignant glioma cell lines; conditions: advertised; cited from earlier work
# [3] = test system: phospholamban threonin-17; test: Phosphorylation of PLB at threonine-17 in failing LV tissue homogenate with/without protein kinase inhibitor and CCM signal (Western blot); format: biochemical, dog
# Method: as §1, §2, §3
# [4] = 10 sec, Control + PK Inhibitor (no CCM)
# [5] = 20 sec, Control + PK Inhibitor (no CCM)
# [6] = 30 sec, Control + PK Inhibitor (no CCM)
# [7] = CCM signals delivered for 60 sec, PK Inhibitor + CCM
structure (smiles),measurement,setting,value
"COCCc1ccc(OCC(O)CNC(C)C)cc1 (centres unmarked) [BB, metoprolol succinate]",Treatment effect (Δ PRE to POST) LV EF,[1]; BB 100 mg once daily combined with CCM therapy,12±1%
same,"LV EDV, effect of therapy",[1]; BB alone,prevented the increase
same,"LV EF, effect of therapy",[1]; BB alone,significantly increased
same,"LV ESV, effect of therapy",[1]; BB alone,significantly reduced
same,Treatment effect (Δ PRE to POST) LV EF,"[1]; BB alone, 100 mg once daily",6±1%
same,"LV EDV, effect of therapy",[1]; BB combined with CCM,prevented the increase
same,"LV EF, effect of therapy",[1]; BB combined with CCM,significantly increased
same,"LV ESV, effect of therapy",[1]; BB combined with CCM,significantly reduced
CN[C@@H]1C[C@H]2O[C@@](C)([C@@H]1OC)n1c3ccccc3c3c4c(c5c6ccccc6n2c5c31)C(=O)NC4 [STAUROSPORIN],cell cycle of normal cells (G1 checkpoint),normal cells,Arrests normal cells at the G1 checkpoint
same,"P-PLB serine-16, single sample",phospholamban serine-16; [4],8.0 and 9.0
same,"P-PLB serine-16, single sample",phospholamban serine-16; [5],12.2 and 14.0
same,"P-PLB serine-16, Av",phospholamban serine-16; [6],9.4
same,"P-PLB serine-16, single sample",phospholamban serine-16; [6],6.8 and 9.7
same,"P-PLB serine-16, single sample","phospholamban serine-16; CCM signals delivered for 30 sec, PK Inhibitor + CCM",14.3 and 13.0
same,"P-PLB serine-16, Av",phospholamban serine-16; [7],19.9
same,"P-PLB serine-16, single sample",phospholamban serine-16; [7],22.7
same,serine-16 PLB phosphorylation response to CCM in presence of kinese inhibitor,phospholamban serine-16; HF dog LV homogenate,responded close to usual
same,IC50,protein kinase G,8.5 nM
same,platelet aggregation induced by collagen or ADP,platelet aggregation,inhibits
same,thrombin-induced platelet aggregation,platelet aggregation,no effect
same,apoptosis in human malignant glioma cell lines,[2],Induces apoptosis
same,"P-PLB threonin-17, single sample",[3]; [4],8.9 and 9.5
same,"P-PLB threonin-17, Av",[3]; [5],9.0
same,"P-PLB threonin-17, single sample",[3]; [6],8.2
same,"P-PLB threonin-17, Av","[3]; 60 sec, Control + PK Inhibitor (no CCM)",13.9
same,"P-PLB threonin-17, single sample","[3]; CCM signals delivered for 10 sec, PK Inhibitor + CCM",14.6 and 9.9 and 8.7
same,"P-PLB threonin-17, single sample","[3]; CCM signals delivered for 20 sec, PK Inhibitor + CCM",8.3 and 15.0
same,"P-PLB threonin-17, Av",[3]; [7],15.0
same,threonin-17 PLB phosphorylation response to CCM in presence of kinese inhibitor,[3]; HF dog LV homogenate,reduced and delayed response

# Source: patent publication US11779768B2, “Protein activity modification” (Impulse Dynamics NV, priority 2004, dated 2023)
